The IC50 is the concentration at which inhibition is half-maximal.

The values below come from patent publication US20200354796A1, “Use of DNA Recombination Deficiency Score (RDS) in Cancer Treatment” (SHUWEN BIOTECH CO., LTD., priority 2017, published 2020).

The subject of one experiment is PC-3. Kind of experiment: In vitro drug sensitivity test of cells, MTS method. Type of experiment: cell-based. To be noted: PC-3 human prostate cancer cells, culture time 72 h-216 h. From the text:
(§1) 1640 medium (Gibco), DMEM medium (Hyclone), MEM medium (Gibco), […] medium (Gibco), DMEM/F12 medium (Gibco), L-15 medium (Hyclone), IMDM culture Base (Hyclone), non-essential amino acid (Gibco), sodium pyruvate (Gibco), insulin-transferrin-selenium additive TS-G, Shanghai Yuanpei Bio-tech), fetal bovine serum ([…]), trypsin digestion fluid (Jiangsu KGI), Cell Titer 96® AQueousOne Solution Cell Proliferation Assay (Promega), 96-well cell culture plate (Corning, Cat. No. 3599), Cisplatin (sigma, Cat. No. P4394), Olaparib (Selleck, Cat. No. S1060), Topotecan hydrochloride hydrate (Sigma, article number T2705), Paclitaxel (Dalian Meilun, article number MB1178). [table] […] Then the inventors adjusted the cell suspension concentration to 1×10^4/mL, added the cells to a 96 well plate as 100 ul per well, that is, 1000-2000 cells per well. Then the cells were incubated at 5% CO2, 37° C. overnight. The next day, after the cells at the bottom of the 96-well plate adhered, various drugs with different concentration gradients were added: […] After putting the 96-well plate into a CO2 incubator for 72 hours, the cell morphology and density in each were observed. For slow-growing cells, supplementation treatment was needed. For different cells, the culture time was between 72 h-216 h, and most of the cell culture time was between 144 h-168 h. […] Measure the absorbance (OD) of each well at 492 nm. Cell Viabilities was calculated by the formula: [formula]
On the technique in general: Formazan colour is commonly taken as a measure of viable cells.

The next experiment has as its system H520. The experiment is described as above. Conditions: culture time 72 h-216 h. The class given is cell-based.
Excerpt: as §1

A further experiment relates to HCC1937. Described as above. The class given is cell-based. Conditions: HCC1937 human breast cancer cells, culture time 72 h-216 h.
Excerpt: as §1

For another experiment, the system named is H2444. Described as above. The class given is cell-based. To be noted: culture time 72 h-216 h.
Excerpt: as §1

The next experiment deals with H1650. Described as above. Type of experiment: cell-based. To be noted: culture time 72 h-216 h.
Excerpt: as §1

Another experiment relates to HT29. The description is as above. Type of experiment: cell-based. Conditions: culture time 72 h-216 h.
Excerpt: as §1

For another experiment, the system named is A549. The experiment is described as above. Type of experiment: cell-based. Conditions: A549 human non-small cell lung adenocarcinoma cells, culture time 72 h-216 h.
Excerpt: as §1

Another experiment concerns HCC4006. Described as above. To be noted: HCC4006 human lung adenocarcinoma cells, culture time 72 h-216 h. The class given is cell-based.
Excerpt: as §1

In another experiment the test system is HCC95. Described as above. Type of experiment: cell-based. Conditions: HCC95 human lung cancer cells, culture time 72 h-216 h.
Excerpt: as §1

The next experiment has as its system H1975. Described as above. Type of experiment: cell-based. Conditions: culture time 72 h-216 h.
Excerpt: as §1

The subject of a further experiment is MCF-7. The experiment is described as above. Conditions: culture time 72 h-216 h. Type of experiment: cell-based.
Excerpt: as §1

The subject of a further experiment is H3122. The description is as above. The class given is cell-based. Conditions: culture time 72 h-216 h.
Excerpt: as §1

A further experiment relates to Cal-120. The experiment is described as above. Type of experiment: cell-based. To be noted: Cal-120 human breast cancer cells, culture time 72 h-216 h.
Excerpt: as §1

Another experiment concerns H2228. The description is as above. The class given is cell-based. Conditions: culture time 72 h-216 h.
Excerpt: as §1

For the next experiment, the system named is H1299. The description is as above. The class given is cell-based. To be noted: culture time 72 h-216 h.
Excerpt: as §1

For the next experiment, the system named is Capan-1. The description is as above. The class given is cell-based. To be noted: Capan-1 human pancreatic cancer cells, culture time 72 h-216 h.
Excerpt: as §1

For another experiment, the system named is T84. Described as above. Type of experiment: cell-based. To be noted: T84 human colon cancer cells, culture time 72 h-216 h.
Excerpt: as §1

The next experiment relates to KYSE450. Described as above. The class given is cell-based. To be noted: culture time 72 h-216 h.
Excerpt: as §1

Another experiment relates to HCC827. The experiment is described as above. The class given is cell-based. To be noted: HCC827 human lung adenocarcinoma cells, culture time 72 h-216 h.
Excerpt: as §1

The subject of a further experiment is CAMA-1. The description is as above. Type of experiment: cell-based. To be noted: CAMA-1 human breast cancer cells, culture time 72 h-216 h.
Excerpt: as §1

The subject of the next experiment is MDA-MB-436. The description is as above. Type of experiment: cell-based. To be noted: MDA-MB-436 human breast cancer cells, culture time 72 h-216 h.
Excerpt: as §1

Another experiment deals with HEK-293. The description is as above. To be noted: culture time 72 h-216 h. Type of experiment: cell-based.
Excerpt: as §1

The subject of the next experiment is TNBC patients. Conditions: CALGB 40603 study, combined carboplatin, cited from earlier work.
Where [1] appears, read: NCI-H520, H520 human non-small cell lung squamous cell.
Setting [2] is: NCI-H2444, H2444 human non-small cell lung cancer cells.
Setting [3] is: NCI-H1650, H1650 human lung cancer cells.
[4] abbreviates: HT-29, HT29 human colon cancer cells.
[5] abbreviates: NCI-H1975, H1975 human non-small cell lung adenocarcinoma cells.
Where [6] appears, read: MCF7, MCF-7 human breast cancer cells.
Setting [7] is: NCI-H3122, H3122 human non-small cell lung cancer cells.
[8] abbreviates: NCI-H2228, H2228 human non-small cell lung adenocarcinoma cells.
Setting [9] is: NCI-H1299, H1299 human non-small cell lung cancer cells.
The mark [10] stands for this setting: KYSE-450, KYSE450 human esophageal cancer cells.
The mark [11] stands for this setting: HEK293, HEK-293 human embryonic kidney cells.

Where a name gives a salt, the structure may show the parent alone.

Take `N.N.[Cl][Pt][Cl]` [Cisplatin, cis-diaminedichloroplatinum(II)]: the concentration for half-maximal inhibition (IC50) with PC-3 came to 799 nM; with H520 (H520 human non-small cell lung squamous cell), 464 nM; with HCC1937 it was 259 nM; with H2444 (H2444 human non-small cell lung cancer cells) it was 1140 nM; in the experiment with H1650 (H1650 human lung cancer cells) it was 1060 nM; with HT29 (HT29 human colon cancer cells) it was 692 nM. The IC50 with A549 is 1000 nM; in the experiment with HCC4006 it was 1000 nM; with HCC95 it was 878 nM; in the experiment with H1975 (H1975 human non-small cell lung adenocarcinoma cells), 7 µM; in the experiment on MCF-7 (MCF-7 human breast cancer cells), 894 nM; in the experiment on H3122 (H3122 human non-small cell lung cancer cells), 1540 nM. The half-maximal inhibitory concentration (IC50) in the experiment with Cal-120 was found to be 4440 nM; with H2228 (H2228 human non-small cell lung adenocarcinoma cells) it was 514 nM; in the experiment with H1299 (H1299 human non-small cell lung cancer cells), 2000 nM; in the experiment with Capan-1, 214 nM; with T84, 433 nM; with KYSE450 (KYSE450 human esophageal cancer cells), 1460 nM. Further, the half-maximal inhibitory concentration (IC50) was found to be 626 nM in the experiment on HCC827, 1400 nM in the experiment on CAMA-1, 139 nM with MDA-MB-436 and 465 nM with HEK-293 (HEK-293 human embryonic kidney cells).

Take `O=C(c1cc(Cc2n[nH]c(=O)c3ccccc23)ccc1F)N1CCN(C(=O)C2CC2)CC1` [Olaparib]: the IC50 turned out to be 6220 nM in the experiment with PC-3; 2190 nM in the experiment with H520 (setting [1]); 10000 nM in the experiment on HCC1937; 7670 nM with H2444 (setting [2]); 75000 nM in the experiment on H1650 (setting [3]); 7660 nM in the experiment with HT29 (setting [4]). In addition, the concentration for half-maximal inhibition (IC50) in the experiment with A549 came to 80000 nM; in the experiment with HCC4006, 9140 nM; in the experiment with HCC95, 25300 nM; in the experiment with H1975 (setting [5]), 80 µM; in the experiment on MCF-7 (setting [6]), 3510 nM; with H3122 (setting [7]), 16900 nM. Besides, the IC50 with Cal-120 came out at 160000 nM; in the experiment on H2228 (setting [8]), 10800 nM; in the experiment with H1299 (setting [9]), 40000 nM; in the experiment with Capan-1 it was 2570 nM; with T84, 5850 nM; with KYSE450 (setting [10]) it was 130000 nM. For the same compound, the IC50 in the experiment on HCC827 was 6080 nM; with CAMA-1, 8330 nM; with MDA-MB-436, below 2500 nM; in the experiment on HEK-293 (setting [11]) it was 5880 nM.

`CC(=O)O[C@H]1C(=O)[C@@]2(C)[C@H]([C@H](OC(=O)c3ccccc3)[C@]3(O)C[C@H](OC(=O)[C@H](O)[C@@H](NC(=O)c4ccccc4)c4ccccc4)C(C)=C1C3(C)C)[C@]1(OC(C)=O)CO[C@@H]1C[C@@H]2O` [Paclitaxel]: the half-maximal inhibitory concentration (IC50) in the experiment with PC-3 is 4.27 nM; in the experiment on H520 (setting [1]) it was 6.99 nM; with HCC1937, 9 nM; in the experiment with H2444 (setting [2]), 7.1 nM; in the experiment with H1650 (setting [3]), 6.61 nM; with HT29 (setting [4]), 3.05 nM. The IC50 in the experiment on A549 was found to be 5.86 nM; with HCC4006 it was 3.85 nM; in the experiment on HCC95, 6.13 nM; in the experiment with H1975 (setting [5]), 0.007 µM; in the experiment on MCF-7 (setting [6]), 4.84 nM; in the experiment with H3122 (setting [7]) it was 8.48 nM. In addition, the IC50 turned out to be 43.5 nM in the experiment on Cal-120; 5.2 nM in the experiment with H2228 (setting [8]); 22.7 nM with H1299 (setting [9]); 6.99 nM in the experiment with Capan-1; 32.1 nM in the experiment with T84; 11.5 nM with KYSE450 (setting [10]). In addition, the IC50 with HCC827 came out at 9.26 nM; with CAMA-1, 4.16 nM; in the experiment on MDA-MB-436 it was 9.67 nM; in the experiment with HEK-293 (setting [11]), 10.3 nM.

As to `CC[C@@]1(O)C(=O)OCc2c1cc1n(c2=O)Cc2cc3c(CN(C)C)c(O)ccc3nc2-1` [Topotecan, Topotecan hydrochloride hydrate], the IC50 in the experiment with PC-3 stood at 20.1 nM; in the experiment with H520 (setting [1]), 9.17 nM; in the experiment on HCC1937, 35.2 nM; in the experiment on H2444 (setting [2]), 8.09 nM; with H1650 (setting [3]), 125 nM; in the experiment on HT29 (setting [4]), 15.6 nM. The 50% inhibitory concentration (IC50) in the experiment with A549 was found to be 250 nM; with HCC4006, 23.1 nM; in the experiment with HCC95, 46.7 nM; in the experiment with H1975 (setting [5]), 0.25 µM; with MCF-7 (setting [6]), 2.05 nM; in the experiment with H3122 (setting [7]) it was 20 nM. Also, the 50% inhibitory concentration (IC50) was 518 nM in the experiment on Cal-120; 24.6 nM in the experiment with H2228 (setting [8]); 28.7 nM in the experiment with H1299 (setting [9]); 15.8 nM in the experiment with Capan-1; 7.56 nM in the experiment on T84; 26.3 nM with KYSE450 (setting [10]). Further, the IC50 with HCC827 worked out at 12.6 nM; in the experiment with CAMA-1 it was 0.907 nM; in the experiment on MDA-MB-436 it was 4.21 nM; with HEK-293 (setting [11]), 18 nM.

On to carboplatin, for which the “breast/axillary pCR rates” value in the experiment on TNBC patients (vs 41% without, P=0.0029) is given as 54%. Moreover, the “breast pCR rates” value in the experiment with TNBC patients (vs 44% without, P=0.0018) is 60%.
